Source: US4493843A, “Indole and indoline carboxylic acid compounds and method of use” (May & Baker Limited, priority 1980, dated 1985)
Structures can show the parent of a compound that is named as a salt. Where two headings read alike, the source gives them in different places.

System: serum cholesterol and serum triglycerides
Assay: Hypolipidaemic activity in rats (compound in diet, last 7 of 10 days)
Type: in vivo, Male Wistar rats
Details: 7 days; for change in vivo at 0.2 % strength / change in vivo at 0.1 % strength / change in vivo at 0.03 % strength: Rattus norvegicus, po, 168 h; for change in vivo at 0.1 % strength: 0.1 % w/w dose in diet; for change in vivo at 0.03 % strength: 0.03 % w/w dose in diet
Method: Hypolipidaemic Activity in Rats
Male Wistar rats each weighing between 120 and 150 g were caged in groups of eight and fed a powdered diet for 10 days. For the last 7 days of that period the test compound was administered orally by mixing the compound in the diet and allowing the animals to feed normally. Food consumption was measured on day 9 for each group.
At noon on day 10 the animals were killed by inhalation of carbon dioxide from solid carbon dioxide. A sample of blood was removed by cardiac puncture and the serum cholesterol and serum triglycerides were analysed by means of an autoanalyser.
Control groups (receiving only the normal, unmedicated diet) were included with each test.
The percentage reductions in the concentrations of serum cholesterol and serum triglycerides were calculated by comparison with the simultaneous controls, for each concentration of the test compound used.

[1] = 0.2 % w/w dose in diet, read-out: % change in serum cholesterol compared with control
[2] = 0.2 % w/w dose in diet, read-out: % change in serum triglycerides compared with control
[3] = read-out: % change in serum cholesterol compared with control
[4] = read-out: % change in serum triglycerides compared with control

Row | Structure (SMILES) | change in vivo at 0.2 % strength [1] [%] | change in vivo at 0.2 % strength [2] [%] | further results
1 | CCCCCCCCCCCCCCCC1Cc2cc(C(=O)O)ccc2N1 (racemic) [Compound AAA, (RS)-2-(n-pentadecyl)indoline-5-carboxylic acid] | -12 | -55 | –
2 | CCCCCCCC1Cc2cc(C(=O)O)ccc2N1 (racemic) [Compound ABB, (RS)-2-(n-heptyl)indoline-5-carboxylic acid] | -18 | -34 | –
3 | CCCCCCCCCCC1Cc2cc(C(=O)O)ccc2N1 (racemic) [Compound ACC, (RS)-2-(n-decyl)indoline-5-carboxylic acid] | -26 | -71 | –
4 | CCCCCCCCCCCCCCCCCC1Cc2cc(C(=O)O)ccc2N1 (racemic) [Compound ADD, (RS)-2-(n-heptadecyl)indoline-5-carboxylic acid] | -6 | -40 | –
5 | CCCCCCCC1Cc2ccc(C(=O)O)cc2N1 (racemic) [Compound AEE, (RS)-2-(n-heptyl)indoline-6-carboxylic acid] | -22 | -37 | –
6 | CCCCCCCCCCCC1Cc2ccc(C(=O)O)cc2N1 (racemic) [Compound AFF, (RS)-2-(n-undecyl)indoline-6-carboxylic acid] | -38 | -58 | –
7 | CCCCCCCCCCCCCCC1Cc2ccc(C(=O)O)cc2N1 (racemic) [Compound AGG, (RS)-2-(n-tetradecyl)indoline-6-carboxylic acid] | -8 | -23 | –
8 | CCCCCCCCCCCC1Cc2ccc(C(=O)O)cc2N1C (racemic) [Compound BII, (RS)-1-methyl-2-(n-undecyl)indoline-6-carboxylic acid] | 0 | -30 | –
9 | CCCCCCCCCCCC1Cc2cc(C(=O)O)ccc2N1C (racemic) [Compound BJJ, (RS)-1-methyl-2-(n-undecyl)indoline-5-carboxylic acid] | -15 | -41 | –
10 | CCCCCCCCCCCCCCCCC1CNc2ccc(C(=O)OC)cc21 (racemic) [Compound BNN, (RS)-methyl 3-(n-hexadecyl)indoline-5-carboxylate] | 7 | -20 | –
11 | CCCCCCCCCCCCCCCCCCC1CNc2ccc(C(=O)O)cc21 (racemic) [Compound BOO, (RS)-3-(n-octadecyl)indoline-5-carboxylic acid] | 3 | 9 | –
12 | CCCCCCCCCCC1CNc2ccc(C(=O)O)cc21 (racemic) [Compound BPP, (RS)-3-(n-decyl)indoline-5-carboxylic acid] | -3 | 0 | –
13 | CCCCCCCCC1CNc2ccc(C(=O)O)cc21 (racemic) [Compound BQQ, (RS)-3-(n-octyl)indoline-5-carboxylic acid] | 11 | 31 | –
14 | CCCCCCCCCCC1CNc2cc(C(=O)O)ccc21 (racemic) [Compound BYY, (RS)-3-(n-decyl)indoline-6-carboxylic acid] | -23 | -50 | –
15 | CCCCCCCCCCCCCCCC1CNc2cc(C(=O)O)ccc21 (racemic) [Compound BZZ, (RS)-3-(n-pentadecyl)indoline-6-carboxylic acid] | -1 | -29 | –
16 | CCCCCCCCCCCCC1CNc2cc(C(=O)O)ccc21 (racemic) [Compound CAA, (RS)-3-(n-dodecyl)indoline-6-carboxylic acid] | -28 | -46 | –

Row | Structure (SMILES) | change in vivo at 0.2 % strength [1] [%] | change in vivo at 0.2 % strength [2] [%] | further results
17 | CCCCCCCCCCCCCCCCCCC1CNc2cc(C(=O)O)ccc21 (racemic) [Compound CBB, (RS)-3-(n-octadecyl)indoline-6-carboxylic acid] | 2 | -7 | –
18 | CCCCCCCCC1CNc2cc(C(=O)O)ccc21 (racemic) [Compound CCC, (RS)-3-(n-octyl)indoline-6-carboxylic acid] | -11 | -28 | –
19 | CCCCCCCCCCCCCCCCC1CNc2cc(C(=O)O)ccc21 (racemic) [Compound CDD, (RS)-3-(n-hexadecyl)indoline-6-carboxylic acid] | -19 | -41 | –
20 | CCCCCCCCC1CNc2cc(C(=O)OC)ccc21 (racemic) [Compound CEE, (RS)-methyl 3-(n-octyl)indoline-6-carboxylate] | -16 | -16 | –
21 | CCCCCCCCCCCCCCCCC1CNc2cc(C(=O)OC)ccc21 (racemic) [Compound CFF, (RS)-methyl 3-(n-hexadecyl)indoline-6-carboxylate] | 6 | 10 | –
22 | CCCCCCCCCCCc1cc2ccc(C(=O)OCC(O)CO)cc2[nH]1 (racemic) [Compound CVV, (RS)-2,3-dihydroxyprop-1-yl 2-(n-undecyl)indole-6-carboxylate] | – | – | change in vivo at 0.1 % strength [3]: -16%; change in vivo at 0.1 % strength [4]: -56%
23 | CCCCCCCCCC(C)c1cc2cc(C(=O)O)ccc2[nH]1 (racemic) [Compound RR, (RS)-2-(1-methyldecyl)indole-5-carboxylic acid] | -7 | -88 | –
24 | CCCCCCCCCC(C)c1cc2ccc(C(=O)O)cc2[nH]1 (racemic) [Compound VV, (RS)-2-(1-methyldecyl)indole-6-carboxylic acid] | -40 | -73 | –
25 | CCCCCCCCCCCC1Cc2cc(C(=O)O)ccc2N1 (racemic) [Compound YY, (RS)-2-(n-undecyl)indoline-5-carboxylic acid] | -32 | -64 | change in vivo at 0.03 % strength [3]: -25%; change in vivo at 0.03 % strength [4]: -51%; change in vivo at 0.1 % strength [3]: -21%; change in vivo at 0.1 % strength [4]: -65%
26 | CCCCCCCCCCC1Cc2ccc(C(=O)O)cc2N1 (racemic) [Compound ZZ, (RS)-2-(n-decyl)indoline-6-carboxylic acid] | -32 | -77 | –
27 | CCCCCCCCCCCc1cc2ccc(C(=O)O)cc2[nH]1 [C sodium salt] | – | – | % change in serum cholesterol compared with control (0.2 % w/w dose in diet, oral): -41%; % change in serum triglycerides compared with control (0.2 % w/w dose in diet, oral): -46%
28 | CCCCCCCCCCCCCc1cc2ccc(C(=O)O)cc2[nH]1 [Compound A, 2-(n-tridecyl)indole-6-carboxylic acid] | -26 | -33 | –
29 | CCCCCCCCCCCCCCCCCCCCc1cc2cc(C(=O)O)ccc2[nH]1 [Compound AA, 2-(n-eicosyl)indole-5-carboxylic acid] | -36 | -57 | –
30 | CCCCCCCc1cc2ccc(C(=O)OC)cc2[nH]1 [Compound AII, methyl 2-(n-heptyl)indole-6-carboxylate] | 7 | 20 | –
31 | CCCCCCCc1cc2ccc(C(=O)OCCCC)cc2[nH]1 [Compound AKK, n-butyl 2-(n-heptyl)indole-6-carboxylate] | -3 | -10 | –
